Test results: PMC1084349 (BMC Neuroscience, 2005)
Where a SMILES comes first, the peptide text is derived from it.

Biological target: T1, rTas1r2-rTas1r3 (Rattus norvegicus, UniProt Q923K1+Q9Z0R7)
T1 sequence (Q9Z0R7 20-843): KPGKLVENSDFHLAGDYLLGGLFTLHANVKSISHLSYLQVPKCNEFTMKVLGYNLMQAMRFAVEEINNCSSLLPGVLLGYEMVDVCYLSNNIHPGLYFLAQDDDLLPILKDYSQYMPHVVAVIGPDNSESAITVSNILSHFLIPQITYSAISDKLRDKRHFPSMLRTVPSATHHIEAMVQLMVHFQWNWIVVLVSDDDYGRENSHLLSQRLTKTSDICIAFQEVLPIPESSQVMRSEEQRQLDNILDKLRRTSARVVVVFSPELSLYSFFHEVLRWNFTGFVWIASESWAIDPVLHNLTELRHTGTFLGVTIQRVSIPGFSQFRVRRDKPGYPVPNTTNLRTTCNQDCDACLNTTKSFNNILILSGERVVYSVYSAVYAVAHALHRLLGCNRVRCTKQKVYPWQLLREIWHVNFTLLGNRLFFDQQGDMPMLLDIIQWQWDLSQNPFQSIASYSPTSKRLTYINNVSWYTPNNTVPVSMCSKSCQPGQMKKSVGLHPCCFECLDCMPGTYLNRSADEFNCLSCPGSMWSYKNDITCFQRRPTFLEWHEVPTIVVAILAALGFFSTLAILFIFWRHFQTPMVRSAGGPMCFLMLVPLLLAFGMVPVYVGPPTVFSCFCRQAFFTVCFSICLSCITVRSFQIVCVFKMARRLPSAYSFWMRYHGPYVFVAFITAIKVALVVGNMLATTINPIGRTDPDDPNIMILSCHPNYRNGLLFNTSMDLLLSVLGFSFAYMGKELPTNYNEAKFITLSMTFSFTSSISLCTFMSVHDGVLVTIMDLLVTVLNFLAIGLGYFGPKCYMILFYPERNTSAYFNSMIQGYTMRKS
T1 sequence (Q923K1 21-858): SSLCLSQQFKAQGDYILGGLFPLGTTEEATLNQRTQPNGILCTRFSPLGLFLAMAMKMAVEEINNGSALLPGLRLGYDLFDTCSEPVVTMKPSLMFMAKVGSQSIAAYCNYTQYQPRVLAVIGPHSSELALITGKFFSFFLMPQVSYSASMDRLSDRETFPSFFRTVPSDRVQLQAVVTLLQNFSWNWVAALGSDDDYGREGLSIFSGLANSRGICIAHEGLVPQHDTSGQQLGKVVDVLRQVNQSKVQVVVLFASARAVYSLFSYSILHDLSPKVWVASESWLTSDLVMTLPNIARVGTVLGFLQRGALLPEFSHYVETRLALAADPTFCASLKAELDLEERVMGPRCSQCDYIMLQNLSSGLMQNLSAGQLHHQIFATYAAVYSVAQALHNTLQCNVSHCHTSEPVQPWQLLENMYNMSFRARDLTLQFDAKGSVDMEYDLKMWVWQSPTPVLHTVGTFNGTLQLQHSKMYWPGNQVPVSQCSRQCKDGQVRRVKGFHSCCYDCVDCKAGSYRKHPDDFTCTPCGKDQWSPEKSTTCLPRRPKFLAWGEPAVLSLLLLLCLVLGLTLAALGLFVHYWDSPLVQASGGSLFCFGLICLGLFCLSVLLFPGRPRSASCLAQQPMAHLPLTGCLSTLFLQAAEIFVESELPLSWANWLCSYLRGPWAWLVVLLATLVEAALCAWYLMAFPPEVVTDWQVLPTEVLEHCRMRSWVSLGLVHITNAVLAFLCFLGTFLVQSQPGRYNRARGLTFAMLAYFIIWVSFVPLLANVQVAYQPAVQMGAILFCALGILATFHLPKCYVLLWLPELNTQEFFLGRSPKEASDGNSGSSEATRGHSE
Assay: Calcium mobilization (FLIPR) in transfected HEK293T-Gα16gust44 cells, rat sweet receptor
Conditions: asp 15 mM; cyc 30 mM; neo 0.1 mM; sac 10 mM; suc 100 mM; stev 1 mM

| SMILES | activation of receptor (calcium response) |
| --- | --- |
| O=S(=O)(O)NC1CCCCC1 [cyclamate] | did not activate |
| COC(=O)[C@H](Cc1ccccc1)NC(=O)[C@@H](N)CC(=O)O [aspartame] (HELM PEPTIDE1{D.F.[CO[*:1]]}$$$$V2.0) | did not activate |
| OC[C@H]1O[C@@](CO)(O[C@H]2O[C@H](CO)[C@@H](O)[C@H](O)[C@H]2O)[C@@H](O)[C@@H]1O [sucrose] | robustly activated |
| COc1ccc(CCC(=O)c2c(O)cc(O[C@@H]3O[C@H](CO)[C@@H](O)[C@H](O)[C@H]3O[C@@H]3O[C@@H](C)[C@H](O)[C@@H](O)[C@H]3O)cc2O)cc1O [neohesperidine dihydrochalcone] | did not activate |
| C=C1C[C@@]23CC[C@H]4[C@@](C)(CCC[C@@]4(C)C(=O)O[C@@H]4O[C@H](CO)[C@@H](O)[C@H](O)[C@H]4O)[C@@H]2CC[C@]1(O[C@@H]1O[C@H](CO)[C@@H](O)[C@H](O)[C@H]1O[C@@H]1O[C@H](CO)[C@@H](O)[C@H](O)[C@H]1O)C3 [stevioside] | robustly activated |
